What was measured:
[1] = Hydroxyapatite Tea Stain Removal Model (HATSR)
Method: A 96 well hydroxyapatite coated microtitre plate was treated with 100 μl aliquots of tea per well (1 teabag (PG Tips)/50 ml of deionised water) and the plate incubated at 37° C./100 rpm. After 10 minutes the plate was washed with deionised water and dried at 37° C. overnight. The test actives (200 μl per well) were added into each column of the tea coated plate along with the positive and negative control (5% sodium tripolyphosphate (STP) and water respectively) and the plate returned to the incubator. After 10 minutes the plate was once again washed and the bound stain was desorbed by the application of 200 μl of 2.5M citric acid per well. After a minimum of 12 hours, 180 μl of the tea/citric acid solutions were transferred to a clean, normal (not HA coated) 96 well microtitre plate and the absorption measured 405 nm.

[2] = Hydroxyapatite Stain Prevention Model (HASP)
Method: A 96 well hydroxyapatite coated microtitre plate was treated with whole unstimulated human saliva (100 μl per well) at 37° C./100 rpm. After 1 hour the plate was washed to remove any unbound components and 200 μl of each test active was transferred to the plate in columns along with a positive and negative control (5% sodium tripolyphosphate, STP), and water respectively) and the plate returned to the incubator. After 10 minutes the plate was once again washed and the plate was stained by the application of 200 μl of fresh tea solution (1 teabag (PG tips)/50 ml of deionised water). After an additional 10 minutes of incubation, the tea was removed and the plate washed. Finally, the bound stain was desorbed by the application of 200 μl of 2.5M citric acid per well. After a minimum of 12 hours, 180 μl of the tea/citric acid solutions were transferred to a clean, normal (not HA coated) 96 well microtitre plate and the absorption measured 405 nm.

sodium dodecylbenzene sulphonate [SDDBS]
stain removal ([1]; SDDBS solutions 0.1%-10%, pH 7, n=8, FIG. 2): removes stain in a dose dependent manner
stain removal versus water negative control ([1]; all SDDBS concentrations except 0.125%, pH 7, FIG. 2): statistically superior to the water negative control
stain removal versus positive control 5% STP ([1]; all SDDBS concentrations, pH 7, FIG. 2): none were as effective as the positive control STP
stain prevention versus water negative control ([2]; 0.1% SDDBS, pH 7, FIG. 1): only directionally superior
stain prevention (uptake of dietary stain onto HASP model oral surfaces) ([2]; SDDBS solutions 0.1%-10%, pH 7, n=8, FIG. 1): prevents the uptake of dietary stain
stain prevention versus positive control 5% STP ([2]; all SDDBS concentrations 0.1%-10%, pH 7, FIG. 1): none were as effective as the positive control STP
stain prevention versus water negative control ([2]; all SDDBS concentrations except 0.1%, pH 7, FIG. 1): statistically superior to the water negative control
stain prevention versus SLS ([2]; equivalent concentration (1% surfactant), pH 7, n=8, FIG. 3): statistically superior to sodium lauryl sulphate (SLS)
